For 40 molecules, ED50 results are on record in patent US11584765B2 (priority 2017, dated 2023).

Some results are limits rather than exact numbers.

The subject of the assay is C57BL/6 mice. The assay can be described thus: animal or person. The conditions noted are these: Mus musculus, sc, 0.5 h, s.c. administration, 30 min, 55° C. water, read-out: ED50 (mg/kg) at 30 min on C57BL/6 mice in Warm-water Tail-flick Test. The class given is in vivo. In general terms: Thermal pain tests record how soon the animal reacts.
For `CCOC[C@@]1(CCc2cc(C)cs2)CCN(Cc2ccc(C)nc2)C1` [Compound 321, (S)-5-((3-(ethoxymethyl)-3-(2-(4-methylthiophen-2-yl)ethyl)pyrrolidin-1-yl)methyl)-2-methylpyridine], the ED50 is less than 10 mg/kg.
As for `CCOC[C@@]1(CCc2ccc(F)cc2)CCN(Cc2cccnc2)C1` [Compound 322, (S)-3-((3-(ethoxymethyl)-3-(4-fluorophenethyl)pyrrolidin-1-yl)methyl)pyridine], the ED50 is less than 10 mg/kg.
The value for `CCOC[C@@]1(CCc2csc(C)c2)CCN(Cc2cccnc2)C1` [Compound 323, (S)-3-((3-(ethoxymethyl)-3-(2-(5-methylthiophen-3-yl)ethyl)pyrrolidin-1-yl)methyl)pyridine] was less than 10 mg/kg; that for `CCOC[C@@]1(CCc2ccsc2)CCN(Cc2ccc(NC(C)=O)cc2)C1` [Compound 324, (S)-N-(4-((3-(ethoxymethyl)-3-(2-(thiophen-3-yl)ethyl)pyrrolidin-1-yl)methyl)phenyl)acetamide] was less than 10 mg/kg.
As to `CCOCC1(CCc2ccccc2)CCN(C(C)c2cccnc2)CC1` (stereo not shown) [Compound 327, 3-(1-(4-(ethoxymethyl)-4-phenethylpiperidin-1-yl)ethyl)pyridine], the ED50 was less than 10 mg/kg.
In the case of `Cc1ccc(C(C)N2CCC(CCc3ccccc3)(c3ccccn3)CC2)c(C)n1` (stereo not shown) [Compound 328, 2,6-dimethyl-3-(1-(4-phenethyl-4-(pyridin-2-yl)piperidin-1-yl)ethyl)pyridine] it was less than 10 mg/kg; in that of `CCOC[C@@]1(CCc2cc(C)cs2)CCN(Cc2ccc(C)nc2C)C1` [Compound 329, (S)-3-((3-(ethoxymethyl)-3-(2-(4-methylthiophen-2-yl)ethyl)pyrrolidin-1-yl)methyl)-2,6-dimethylpyridine], less than 10 mg/kg.
In the case of `CCOC[C@@]1(CCc2csc(C)c2)CCN(Cc2ccc(C)nc2C)C1` [Compound 330, (S)-3-((3-(ethoxymethyl)-3-(2-(5-methylthiophen-yl)ethyl)pyrrolidin-1-yl)methyl)-2,6-dimethylpyridine] it was less than 10 mg/kg.
In the case of `CCOC[C@@]1(CCc2cscc2C)CCN(Cc2ccc(C)nc2C)C1` [Compound 331, (S)-3-((3-(ethoxymethyl)-3-(2-(4-methylthiophen-3-yl)ethyl)pyrrolidin-1-yl)methyl)-2,6-dimethylpyridine] it was less than 10 mg/kg; in that of `CCOCC1(CCc2ccccc2)CCN(C(C)c2cnn(C)c2)C1` (stereo not drawn) [Compound 332, 4-(1-(3-(ethoxymethyl)-3-phenethylpyrrolidin-1-yl)ethyl)-l-methyl-1H-pyrazole], less than 10 mg/kg.
Regarding `CCOC[C@@]1(CCc2cccs2)CCN(Cc2ccc(C)nc2)C1` [Compound 333, (S)-5-((3-(ethoxymethyl)-3-(2-(thiophen-2-yl)ethyl)pyrrolidin-1-yl)methyl)-2-methylpyridine], the ED50 is less than 10 mg/kg.
In the case of `CCOC[C@@]1(CCc2cccs2)CCN(Cc2ccc(C)nc2C)C1` [Compound 334, (S)-3-((3-(ethoxymethyl)-3-(2-(thiophen-2-yl)ethyl)pyrrolidin-1-yl)methyl)-2,6-dimethylpyridine] it was less than 10 mg/kg; in that of `CCOC[C@@]1(CCc2csc(C)c2)CCN(Cc2ccc(C)nc2)C1` [Compound 335, (S)-5-((3-(ethoxymethyl)-3-(2-(5-methylthiophen-3-yl)ethyl)pyrrolidin-1-yl)methyl)-2-methylpyridine], less than 10 mg/kg.
The value for `CCOC[C@@]1(CCc2ccsc2)CCN(Cc2ccc(C)nc2C)C1` [Compound 336] was less than 10 mg/kg.
As to `CCOC[C@@]1(CCc2cc(C)cs2)CCN(Cc2cccnc2)C1.Cl` [Compound 337], the ED50 is less than 10 mg/kg.
Take `CCOCC1(CCc2ccccc2)CCN(CC(O)c2ccc(C)nc2)C1` (stereo not shown) [Compound 338, 2-(3-(ethoxymethyl)-3-phenethylpyrrolidin-1-yl)-1-(6-methylpyridin-3-yl)ethanol]: the ED50 was greater than 10 mg/kg.
The value for `Cc1ccc(N(C)N2CCC(CCc3ccccc3)(c3ccccn3)CC2)c(C)n1` [Compound 339, N,2,6-trimethyl-N-(4-phenethyl-4-(pyridin-2-yl)piperidin-1-yl)pyridin-3-amine] was greater than 10 mg/kg.
The value for `CCOCC1(CCc2ccccc2)CCN(Cc2csc(C)n2)C1` (stereo not shown) [Compound 340, 4-((3-(ethoxymethyl)-3-phenethylpyrrolidin-1-yl)methyl)-2-methylthiazole] was greater than 10 mg/kg; that for `CCOCC1(CCc2ccccc2)CCN(C(C)c2csc(C)n2)C1` (stereo not shown) [Compound 341, 4-(1-(3-(ethoxymethyl)-3-phenethylpyrrolidin-1-yl)ethyl)-2-methylthiazole] was less than 10 mg/kg; that for `CCOCC1(CCc2ccccc2)CCN(C(CO)c2ccc(C)nc2)C1` (stereo not shown) [Compound 342, 2-(3-(ethoxymethyl)-phenethylpyrrolidin-1-yl)-2-(6-methylpyridin-3-yl)ethanol] was less than 10 mg/kg.
In the case of `CCOCC1(CCc2ccccc2)CCN(C(C)(C)c2cccnc2)C1` (stereo not shown) [Compound 343, 3-(2-(3-(ethoxymethyl)-3-phenethylpyrrolidin-1-yl)propan-2-yl)pyridine] it was less than 10 mg/kg; in that of `CCOC[C@@]1(CCc2ccc(F)s2)CCN(Cc2ccc(C)nc2)C1` [Compound 344], less than 10 mg/kg.
With `CCOC[C@@]1(CCc2ccc(F)s2)CCN(Cc2cccnc2)C1` [Compound 345, (S)-3-((3-(ethoxymethyl)-3-(2-(5-fluorothiophen-2-yl)ethyl)pyrrolidin-1-yl)methyl)pyridine], the ED50 was less than 10 mg/kg.
The value for `CCOCC1(CCc2ccccc2)CCN(C(C)c2cnc(C)s2)C1` (stereo not shown) [Compound 346, 5-(1-(3-(ethoxymethyl)-3-phenethylpyrrolidin-1-yl)ethyl)-2-methylthiazole] was less than 10 mg/kg; that for `CCOCC1(CCc2ccccc2)CCN(C(C)C(O)c2ccc(C)nc2)C1` (stereo not shown) [Compound 347, 2-(3-(ethoxymethyl)-3-phenethylpyrrolidin-1-yl)-1-(6-methylpyridin-3-yl)propan-1-ol] was greater than 10 mg/kg.
Consider `Cc1ccc(CN2CC[C@](CCc3ccsc3)([C@@H]3CCCO3)C2)cn1` [Compound 348, 2-methyl-5-(((S)-3-((S)-tetrahydrofuran-2-yl)-3-(2-(thiophen-3-yl)ethyl)pyrrolidin-1-yl)methyl)pyridine], for which the ED50 was less than 10 mg/kg.
The value for `CCOCC1(CCc2ccccn2)CCN(C(C)c2ccc(C)nc2)C1` (stereo not shown) [Compound 349, 5-(1-(3-(ethoxymethyl)-3-(2-(pyridin-2-yl)ethyl)pyrrolidin-1-yl)ethyl)-2-methylpyridine] was less than 10 mg/kg.
The value for `CCOCC1(CCc2cccnc2)CCN(C(C)c2ccc(C)nc2)C1` (stereo not shown) [Compound 350, 5-(1-(3-(ethoxymethyl)-3-(2-(pyridin-3-yl)ethyl)pyrrolidin-1-yl)ethyl)-2-methylpyridine] was less than 10 mg/kg.
In the case of `CCOCC1(CCc2ncccn2)CCN(C(C)c2ccc(C)nc2)C1` (stereo not shown) [Compound 351, 2-(2-(3-(ethoxymethyl)-1-(1-(6-methylpyridin-3-yl)ethyl)pyrrolidin-3-yl)ethyl)pyrimidine] it was less than 10 mg/kg.
For the molecule `CCOC[C@]1(CCc2ccsc2)CCN(C(C)(C)c2ccc(C)nc2)C1` [Compound 352, (R)-5-(2-(3-(ethoxymethyl)-3-(2-(thiophen-3-yl)ethyl)pyrrolidin-1-yl)propan-2-yl)-2-methylpyridine], the ED50 was less than 10 mg/kg.
For the molecule `CCOC[C@@]1(CCc2cccs2)CCN(C(C)(C)c2ccc(C)nc2)C1` [Compound 353, (S)-5-(2-(3-(ethoxymethyl)-3-(2-(thiophen-2-yl)ethyl)pyrrolidin-1-yl)propan-2-yl)-2-methylpyridine], the ED50 was less than 10 mg/kg.
In the case of `CCOC[C@@]1(CCc2csc(C)c2)CCN(C(C)(C)c2ccc(C)nc2)C1` [Compound 354, (S)-5-(2-(3-(ethoxymethyl)-3-(2-(5-methylthiophen-3-yl)ethyl)pyrrolidin-1-yl)propan-2-yl)-2-methylpyridine] it was less than 10 mg/kg; in that of `CCOC[C@@]1(CCc2cc(C)cs2)CCN(C(C)(C)c2ccc(C)nc2)C1` [Compound 355, (S)-5-(2-(3-(ethoxymethyl)-3-(2-(4-methylthiophen-2-yl)ethyl)pyrrolidin-1-yl)propan-2-yl)-2-methylpyridine], less than 10 mg/kg.
`CCOC[C@@]1(CCc2ccsc2)CCN(C(C)(C)c2ccc(C)nc2)C1` [Compound 356, (S)-5-(2-(3-(ethoxymethyl)-3-(2-(thiophen-3-yl)ethyl)pyrrolidin-1-yl)propan-2-yl)-2-methylpyridine]: the ED50 was less than 10 mg/kg.
The value for `CCOCC1(CCc2cnccn2)CCN(C(C)c2ccc(C)nc2)C1.Cl` (stereo not shown) [Compound 357, 2-(2-(3-(ethoxymethyl)-1-(1-(6-methylpyridin-3-yl)ethyl)pyrrolidin-3-yl)ethyl)pyrazine HCl] was less than 10 mg/kg; that for `CCOCC1(CCc2nccn2C)CCN(C(C)c2ccc(C)nc2)C1` (stereo not shown) [Compound 358, 5-(1-(3-(ethoxymethyl)-3-(2-(1-methyl-1H-imidazol-2-yl)ethyl)pyrrolidin-1-yl)ethyl)-2-methylpyridine] was greater than 10 mg/kg.
Regarding `CCOC[C@@]1(CCc2ccccn2)CCN(C(C)(C)c2ccc(C)nc2)C1` [Compound 359, (S)-5-(2-(3-(ethoxymethyl)-3-(2-(pyridin-2-yl)ethyl)pyrrolidin-1-yl)propan-2-yl)-2-methylpyridine], the ED50 is less than 10 mg/kg.
For the molecule `CCOC[C@@]1(CCc2ncccn2)CCN(C(C)(C)c2ccc(C)nc2)C1` [Compound 360, (S)-2-(2-(3-(ethoxymethyl)-1-(2-(6-methylpyridin-3-yl)propan-2-yl)pyrrolidin-3-yl)ethyl)pyrimidine], the ED50 was less than 10 mg/kg.
The value for `CCOC[C@@]1(CCc2ccnc(OC)c2)CCN(C(C)(C)c2ccc(C)nc2)C1.Cl` [Compound 361, (S)-4-(2-(3-(ethoxymethyl)-1-(2-(6-methylpyridin-3-yl)propan-2-yl)pyrrolidin-3-yl)ethyl)-2-methoxypyridine HCl] was less than 10 mg/kg.
As to `CCOC[C@@]1(CCc2cc3c(s2)CCC3)CCN(C(C)(C)c2ccc(C)nc2)C1.Cl` [Compound 362, (S)-5-(2-(3-(2-(5,6-dihydro-4H-cyclopenta[b]thiophen-2-yl)ethyl)-3-(ethoxy-methyl)pyrrolidin-1-yl)propan-2-yl)-2-methylpyridine HCl], the ED50 was less than 10 mg/kg.
